Results published in patent US12173018B2, “Penicillin-binding protein inhibitors” (priority 2018, dated 2024).
Values after ≈ are worked out from the molar mass of the structure shown. Read-outs that look alike come from different tables or passages of the source.

Assays:
N. gonorrhoeae WHO F = test: Liquid broth MIC, N. gonorrhoeae WHO F; type: cell-based; conditions: Neisseria gonorrhoeae; N. gonorrhoeae WHO F, liquid broth; read-out: Minimum Inhibitory Concentration, N. gonorrhoeae WHO F
Summary of the method: (§1)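 Growth inhibition was scored by eye as the lowest compound concentration free of bacterial growth. Cultures from Kellogg's-supplemented GC agar, diluted to 5×10^5 CFU/mL, were exposed to serially diluted compound for 40-42 h at 36° C under 5% CO2.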

K. pneumoniae 848844 = test: microbe, parasite or virus in culture; type: cell-based, Klebsiella pneumoniae
Summary of the method: (§2)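 Strains are tested by standard CLSI broth microdilution. Log-phase cells, diluted by OD600 to 5×10^5 CFU/mL, meet 2-fold compound series and incubate 16-20 hours at 37° C before the lowest growth-free concentration is recorded.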

[1] = test system: N. gonorrhoeae ATCC 49226; test: Liquid broth MIC, N. gonorrhoeae ATCC 49226; type: cell-based; conditions: Neisseria gonorrhoeae, ATCC49226; N. gonorrhoeae ATCC 49226, liquid broth; read-out: Minimum Inhibitory Concentration, N. gonorrhoeae ATCC 49226
Summary of the method: as §1

E. coli AG100 = test: Broth microdilution MIC, E. coli AG100 (wild-type parent); type: cell-based; conditions: Escherichia coli
Summary of the method: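 Starting inoculum of 5×10^5 CFU/mL, from colonies grown 3-5 h in Mueller-Hinton broth with divalent cations, added to two-fold compound dilution series.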

E. coli ATCC 25922 = test: Broth microdilution MIC, E. coli ATCC 25922; type: cell-based; conditions: Escherichia coli
Summary of the method: as §2

N. gonorrhoeae FA1090 = test: Liquid broth MIC, N. gonorrhoeae FA1090; type: cell-based; conditions: Neisseria gonorrhoeae; N. gonorrhoeae FA1090, liquid broth; read-out: Minimum Inhibitory Concentration, N. gonorrhoeae FA1090
Summary of the method: as §1

[2] = Klebsiella pneumoniae, K. pneumoniae 848844 producing SHV-11 and KPC-2, read-out: MIC K. pneumoniae 848844
[3] = wild-type parent E. coli AG100, broth microdilution, read-out: MIC E. coli AG100
[4] = ATCC25922, E. coli ATCC 25922, broth microdilution, read-out: MIC E. coli 25922

| SMILES | MIC (N. gonorrhoeae WHO F) | MIC (K. pneumoniae 848844; [2]) | MIC [1] | MIC (E. coli AG100; [3]) | MIC (E. coli ATCC 25922; [4]) | MIC (N. gonorrhoeae FA1090) | MIC (K. pneumoniae 848844; Klebsiella pneumoniae, 848844, read-out: MIC K. pneumoniae 848844) | MIC (E. coli AG100; AG100, read-out: MIC E. coli AG100) | MIC (E. coli ATCC 25922; ATCC25922, read-out: MIC E. coli 25922) |
| --- | --- | --- | --- | --- | --- | --- | --- | --- | --- |
| CCN1CCN(C(=O)N[C@@H](C(=O)N[C@H]2Cc3ccc(F)c(C(=O)O)c3OB2O)c2ccc(O)c(O)c2Cl)C(=O)C1=O [Example 189, (R)-3-((R)-2-(2-chloro-3,4-dihydroxyphenyl)-2-(4-ethyl-2,3-dioxopiperazine-1-carboxamido)acetamido)-7-fluoro-2-hydroxy-3,4-dihydro-2H-benzo[e][1,2]oxaborinine-8-carboxylic acid] | 0.25 to 0.5 µg/mL (≈ 0.422 to 0.844 µM) | 2 to 4 µg/mL | 1 to 2 µg/mL (≈ 1.69 to 3.37 µM) | 2 to 4 µg/mL | 2 to 4 µg/mL | 0.25 to 0.5 µg/mL (≈ 0.422 to 0.844 µM) | – | – | – |
| CCN1C[C@H](CO)N(C(=O)NC(C(=O)N[C@H]2Cc3ccc(F)c(C(=O)O)c3OB2O)c2ccc(O)c(O)c2Cl)C(=O)C1=O (stereo partly drawn) [Example 237, (3R)-3-(2-(2-chloro-3,4-dihydroxyphenyl)-2-((R)-4-ethyl-6-(hydroxymethyl)-2,3-dioxopiperazine-1-carboxamido)acetamido)-7-fluoro-2-hydroxy-3,4-dihydro-2H-benzo[e][1,2]oxaborinine-8-carboxylic acid] | 0.25 to 0.5 µg/mL (≈ 0.401 to 0.803 µM) | 2 to 4 µg/mL | 4 to 8 µg/mL (≈ 6.42 to 12.8 µM) | 0.5 to 1 µg/mL | 2 to 4 µg/mL | 1 to 2 µg/mL (≈ 1.61 to 3.21 µM) | – | – | – |
| CC[C@H]1CN(CC)C(=O)C(=O)N1C(=O)NC(C(=O)N[C@H]1Cc2cccc(C(=O)O)c2OB1O)c1ncc(O)cc1F (stereo partly drawn) [Example 218, (3R)-3-(2-((S)-4,6-diethyl-2,3-dioxopiperazine-1-carboxamido)-2-(3-fluoro-5-hydroxypyridin-2-yl)acetamido)-2-hydroxy-3,4-dihydro-2H-benzo[e][1,2]oxaborinine-8-carboxylic acid] | 0.25 to 0.5 µg/mL (≈ 0.438 to 0.875 µM) | > 128 µg/mL | 16 to 32 µg/mL (≈ 28 to 56 µM) | 32 to 64 µg/mL | 32 to 64 µg/mL | 0.25 to 0.5 µg/mL (≈ 0.438 to 0.875 µM) | – | – | – |
| CCN1CCN(C(=O)NC(C(=O)N[C@H]2Cc3cccc(C(=O)O)c3OB2O)c2ncc(O)cc2F)C(=O)C1=O (stereo partly drawn) [Example 135, (3R)-3-(2-(4-ethyl-2,3-dioxopiperazine-1-carboxamido)-2-(3-fluoro-5-hydroxypyridin-2-yl)acetamido)-2-hydroxy-3,4-dihydro-2H-benzo[e][1,2]oxaborinine-8-carboxylic acid] | < 0.125 µg/mL | 32 to 64 µg/mL | 1 to 2 µg/mL (≈ 1.84 to 3.68 µM) | 8 to 16 µg/mL | 2 to 4 µg/mL | < 0.125 µg/mL | – | – | – |
| CCN1C[C@H](C)N(C(=O)NC(C(=O)N[C@H]2Cc3ccc(F)c(C(=O)O)c3OB2O)c2ccc(O)c(O)c2Cl)C(=O)C1=O (stereo partly drawn) [Example 206, (3R)-3-(2-(2-chloro-3,4-dihydroxyphenyl)-2-((S)-4-ethyl-6-methyl-2,3-dioxopiperazine-1-carboxamido)acetamido)-7-fluoro-2-hydroxy-3,4-dihydro-2H-benzo[e][1,2]oxaborinine-8-carboxylic acid] | 0.25 to 0.5 µg/mL (≈ 0.412 to 0.824 µM) | 2 to 4 µg/mL | 4 to 8 µg/mL (≈ 6.59 to 13.2 µM) | 0.5 to 1 µg/mL | 2 to 4 µg/mL | 0.25 to 0.5 µg/mL (≈ 0.412 to 0.824 µM) | – | – | – |
| CCN1CCN(C(=O)NC(C(=O)N[C@H]2Cc3ccc(F)c(C(=O)O)c3OB2O)c2csc(N)n2)C(=O)C1=O (stereo partly drawn) [Example 109, (3R)-3-(2-(2-aminothiazol-4-yl)-2-(4-ethyl-2,3-dioxopiperazine-1-carboxamido)acetamido)-7-fluoro-2-hydroxy-3,4-dihydro-2H-benzo[e][1,2]oxaborinine-8-carboxylic acid] | 0.25 to 0.5 µg/mL (≈ 0.456 to 0.912 µM) | 32 to 64 µg/mL | 1 to 2 µg/mL (≈ 1.82 to 3.65 µM) | 8 to 16 µg/mL | 8 to 16 µg/mL | 0.25 to 0.5 µg/mL (≈ 0.456 to 0.912 µM) | – | – | – |
| CCN1CCN(C(=O)NC(C(=O)N[C@H]2Cc3cccc(C(=O)O)c3OB2O)c2csc(N)n2)C(=O)C1=O (stereo partly drawn) [Example 5, (3R)-3-(2-(2-aminothiazol-4-yl)-2-(4-ethyl-2,3-dioxopiperazine-1-carboxamido)acetamido)-2-hydroxy-3,4-dihydro-2H-benzo[e][1,2]oxaborinine-8-carboxylic acid] | < 0.125 µg/mL | 32 to 64 µg/mL | 1 to 2 µg/mL (≈ 1.89 to 3.77 µM) | 8 to 16 µg/mL | 8 to 16 µg/mL | < 0.125 µg/mL | – | – | – |
| CCN1CCN(C(=O)NC(C(=O)N[C@H]2Cc3ccc(F)c(C(=O)O)c3OB2O)c2cc(O)c(O)cc2F)C(=O)C1=O (stereo partly drawn) [Example 136, (3R)-3-(2-(4-ethyl-2,3-dioxopiperazine-1-carboxamido)-2-(2-fluoro-4,5-dihydroxyphenyl)acetamido)-7-fluoro-2-hydroxy-3,4-dihydro-2H-benzo[e][1,2]oxaborinine-8-carboxylic acid] | 1 to 2 µg/mL (≈ 1.74 to 3.47 µM) | 32 to 64 µg/mL | 1 to 2 µg/mL (≈ 1.74 to 3.47 µM) | 2 to 4 µg/mL | 8 to 16 µg/mL | 1 to 2 µg/mL (≈ 1.74 to 3.47 µM) | – | – | – |
| C[C@H]1CN(CCO)C(=O)C(=O)N1C(=O)NC(C(=O)N[C@H]1Cc2cccc(C(=O)O)c2OB1O)c1ccc(O)c(O)c1Cl (stereo partly drawn) [Example 224, (3R)-3-(2-(2-chloro-3,4-dihydroxyphenyl)-2-((S)-4-(2-hydroxyethyl)-6-methyl-2,3-dioxopiperazine-1-carboxamido)acetamido)-2-hydroxy-3,4-dihydro-2H-benzo[e][1,2]oxaborinine-8-carboxylic acid] | 4 to 8 µg/mL (≈ 6.61 to 13.2 µM) | 2 to 4 µg/mL | > 64 µg/mL | 2 to 4 µg/mL | 2 to 4 µg/mL | 1 to 2 µg/mL (≈ 1.65 to 3.31 µM) | – | – | – |
| NCCCN1CCN(C(=O)N[C@@H](C(=O)N[C@H]2Cc3ccc(F)c(C(=O)O)c3OB2O)c2ccc(O)c(O)c2Cl)C(=O)C1=O [Example 236, (R)-3-((R)-2-(4-(3-aminopropyl)-2,3-dioxopiperazine-1-carboxamido)-2-(2-chloro-3,4-dihydroxyphenyl)acetamido)-7-fluoro-2-hydroxy-3,4-dihydro-2H-benzo[e][1,2]oxaborinine-8-carboxylic acid] | 1 to 2 µg/mL (≈ 1.61 to 3.22 µM) | 0.5 to 1 µg/mL | 16 to 32 µg/mL (≈ 25.7 to 51.5 µM) | 0.5 to 1 µg/mL | 0.5 to 1 µg/mL | 1 to 2 µg/mL (≈ 1.61 to 3.22 µM) | – | – | – |
| CCN1CCN(C(=O)NC(C(=O)N[C@H]2Cc3cccc(C(=O)O)c3OB2O)c2ccc(B(O)O)cc2)C(=O)C1=O (stereo partly drawn) [Example 112] | < 0.125 µg/mL | – | 1 to 2 µg/mL (≈ 1.81 to 3.62 µM) | – | 32 to 64 µg/mL | < 0.125 µg/mL | > 128 µg/mL | 32 to 64 µg/mL | – |
| CCN1C[C@H](C)N(C(=O)NC(C(=O)N[C@H]2Cc3ccc(F)c(C(=O)O)c3OB2O)c2ncc(O)cc2F)C(=O)C1=O (stereo partly drawn) [Example 208, (3R)-3-(2-((S)-4-ethyl-6-methyl-2,3-dioxopiperazine-1-carboxamido)-2-(3-fluoro-5-hydroxypyridin-2-yl)acetamido)-7-fluoro-2-hydroxy-3,4-dihydro-2H-benzo[e][1,2]oxaborinine-8-carboxylic acid] | < 0.125 µg/mL | 32 to 64 µg/mL | 4 to 8 µg/mL (≈ 6.95 to 13.9 µM) | 8 to 16 µg/mL | 8 to 16 µg/mL | 0.25 to 0.5 µg/mL (≈ 0.435 to 0.869 µM) | – | – | – |
| O=C(O)c1cccc2c1OB(O)[C@@H](NC(=O)C(NC(=O)N1CCN(CCF)C(=O)C1=O)c1ccc(S(=O)(=O)NCCO)cc1)C2 (stereo partly drawn) [Example 213, (3R)-3-(2-(4-(2-fluoroethyl)-2,3-dioxopiperazine-1-carboxamido)-2-(4-(N-(2-hydroxyethyl)sulfamoyl)phenyl)acetamido)-2-hydroxy-3,4-dihydro-2H-benzo[e][1,2]oxaborinine-8-carboxylic acid] | 0.25 to 0.5 µg/mL (≈ 0.385 to 0.77 µM) | > 128 µg/mL | 4 to 8 µg/mL (≈ 6.16 to 12.3 µM) | 32 to 64 µg/mL | > 128 µg/mL | 0.25 to 0.5 µg/mL (≈ 0.385 to 0.77 µM) | – | – | – |
| CCN1CCN(C(=O)NC(C(=O)N[C@H]2Cc3ccc(F)c(C(=O)O)c3OB2O)c2ccc(O)c(O)c2Cl)C(O)C1=O (stereo partly drawn) [Example 194, (3R)-3-(2-(2-chloro-3,4-dihydroxyphenyl)-2-(4-ethyl-2-hydroxy-3-oxopiperazine-1-carboxamido)acetamido)-7-fluoro-2-hydroxy-3,4-dihydro-2H-benzo[e][1,2]oxaborinine-8-carboxylic acid] | 4 to 8 µg/mL (≈ 6.73 to 13.5 µM) | 8 to 16 µg/mL | 16 to 32 µg/mL (≈ 26.9 to 53.8 µM) | 8 to 16 µg/mL | – | 4 to 8 µg/mL (≈ 6.73 to 13.5 µM) | – | – | 32 to 64 µg/mL |
